Experimental findings from patent US8796245B2 (TetraPhase Pharmaceuticals, Inc., priority 2008, dated 2014) are described below.

Data set [1] in a line: Metabolic stability, pooled human microsome assay. Format: in vitro ADME. The note with it: % compound remaining after 60 min, 37° C. incubation with human liver microsomes. The method, then: A stock solution of the test compounds were prepared by dissolving the compound in DMSO to a final concentration of 1.0 mg/mL. The analytes and internal standard were diluted and infused into the LC/MS system to determine optimal ionization, polarity and MS/MS fragmentation for selection of specific MRM (multiple reaction monitoring) transitions. Generic chromatographic conditions were developed with a less than 5 minute cycle time. Pooled human microsome assays were conducted at 0.2 mg/mL protein with an NADPH generating cofactor system (1.3 mM NADP+, 3.3 mM glucose-6-phosphate, 0.4 U/mL glucose-6-phosphate dehydrogenase, and 3.3 mM magnesium chloride). Test compounds were diluted from DMSO stocks to 1 μM reaction concentrations. Time points were removed at 0 and 60 minutes. After a protein crash with acetonitrile, samples are analyzed by LC/MS/MS. Peak areas are compared to the time 0 sample, and the percent analyte remaining is calculated. A reaction containing no cofactor was used to control for analyte loss due to non-specific binding, thermal degradation and solubility.
A general note: Microsomes from liver hold many membrane-bound enzymes, among them those of drug oxidation.

Data set [2] relates to S. aureus SA161, a tetracycline-resistant strain. In words: Tet-R sepsis study, mouse systemic infection model. The conditions noted are these: mg/kg required to protect 50% of mice in septicemia model with tetracycline-resistant S. aureus strain. Format: in vivo. The method, then:
(§1) Compounds of the present invention were evaluated for efficacy in a mouse systemic infection model against a susceptible S. aureus isolate, ATCC 13709. Mice were infected via intraperitoneal injection with a bacterial load that would result in 0% survival within 48 hours after infection. Mice received the test compounds 60 minutes post infection via intravenous injection. […] Survival was assessed over a 48 hour period. Percent survival was calculated and PD50 values determined using Probit analysis.
The protocol for tetracycline-resistance sepsis study was similar to the protocol for EV50 IV study described above except the infection model used S. aureus SA161, a tetracycline-resistant strain.

A further data set has as its system E. coli ATCC 25922. In words: GN sepsis study, mouse systemic infection model. Format: in vivo. The conditions noted are these: mg/kg required to protect 50% of mice in septicemia model with E. coli strain. The method, then: as §1, with “analysis. The protocol for GN sepsis study was similar to the protocol for EV50 IV study described above except the infection model used E. coli ATCC 25922.” for “analysis.”

The subject of data set [3] is tetracycline-resistant S. aureus. In words: TetR MIC90. Format: cell-based. The note with it: Staphylococcus aureus; inhibit 90% of tetracycline-resistant S. aureus (n = 10); read-out: TetR MIC 90. Here is the method: Twenty randomly selected clinical isolates of S. aureus were used to determine the minimal inhibitory concentration (MIC) of test compounds for 90% of the isolates (MIC90). MICs were performed by microtiter broth dilution in a 96-well format according to Clinical Laboratory Standards Institute (CLSI) guidelines, as described above.

Data set [4] can be described thus: Protein binding in human plasma (RED devices). It counts as in vitro ADME. The note with it: % Protein binding in human plasma with compound at 10 uM. The method, then: Test compounds were prepared as 1.0 mg/mL stock solutions in DMSO. The analytes and internal standard were diluted and infused into the LC/MS system to determine optimal ionization, polarity and MS/MS fragmentation for selection of specific MRM (multiple reaction monitoring) transitions. Generic chromatographic conditions were developed with a less than 5 minute cycle time.
[…] The time point was removed at the end of the incubation period. After a protein crash with acetonitrile, the samples were analyzed by LC/MS/MS. Peak areas for the buffer (receiver) and sample (donor) chambers were compared and the protein bound fraction is calculated. Analysis was conducted in duplicate.

The test system of data set [5] is clinical isolates of E. coli. In words: EC MIC90. It counts as cell-based. The note with it: Escherichia coli; inhibit 90% of E. coli clinical isolates (n = 20); read-out: EC MIC 90. Here is the method:
Twenty randomly selected clinical isolates of S. aureus were used to determine the minimal inhibitory concentration (MIC) of test compounds for 90% of the isolates (MIC90). MICs were performed by microtiter broth dilution in a 96-well format according to Clinical Laboratory Standards Institute (CLSI) guidelines, as described above. Twenty randomly selected clinical isolates of E. coli were used to determine the MIC90 as described above.

The next data set deals with S. aureus ATCC 13709. In words: Thigh burden, neutropenic mouse thigh infection. Format: in vivo. The conditions noted are these: maximum log10 reduction in bacteria compared to untreated control, achieved at tested doses; neutropenic mice, IV. The method, then:
Female CD-1 mice were pre-treated with cyclophosphamide to render the mice neutropenic. Mice were infected with S. aureus ATCC 13709 via injection into the right thigh muscle of 0.1 ml per mouse. One and a half hours post infection mice were treated IV with test compounds in doses ranging from 0.3 to 30 mg/kg or 0.3 to 20 mg/kg. Four mice were treated with each drug concentration. Twenty-four hours post treatment, mice were euthanized by CO2 inhalation. The right thighs of the mice were aseptically removed, weighed, homogenized, serially diluted, and plated on TSA medium. The plates were incubated overnight at 37° C. in 5% CO2. Colony forming units per gram of thigh was calculated by enumerating the plated colonies then adjusting for serial dilutions and the weight of the thigh.

Data set [6] concerns clinical isolates of S. aureus. In words: SA MIC90. It counts as cell-based. The note with it: Staphylococcus aureus; inhibit 90% of S. aureus clinical isolates (n = 20); read-out: SA MIC 90. Here is the method: Twenty randomly selected clinical isolates of S. aureus were used to determine the minimal inhibitory concentration (MIC) of test compounds for 90% of the isolates (MIC90). MICs were performed by microtiter broth dilution in a 96-well format according to Clinical Laboratory Standards Institute (CLSI) guidelines, as described above. Viable counts were determined by 10-fold serial dilution. Dilutions were prepared in sterile 0.9% NaCl. Ten microliters of the inoculum and of each of 5 dilutions were plated onto blood or Mueller Hinton agar plates, incubated overnight at 37° C. with 5% CO2, and counted.

In data set [7] the test system is S. aureus isolate, ATCC 13709. In words: ED50 IV study, mouse systemic infection model. Format: in vivo. The note with it: Staphylococcus aureus, ATCC13709, mg/kg required to protect 50% of mice in septicemia model with S. aureus Smith strain, 60 minutes post infection, 48 hour survival. Here is the method:
as §1

Converted amounts (≈) assume the structure as drawn.

With `CN(C)[C@@H]1C(O)=C(C(N)=O)C(=O)[C@@]2(O)C(O)=C3C(=O)c4c(O)c(NC(=O)CN5CCCC5)cc(F)c4C[C@H]3C[C@@H]12` [drawing 217], the “Meta Stab %” value in [1] worked out at 86%. Moreover, in data set [2], the TetR sepsis is 1 mg/kg. In addition, the GN sepsis with E. coli ATCC 25922 was 4.36 mg/kg. The results for the MIC90 in data set [3], in [5] and in data set [6] were 2 µg/mL (≈ 3.58 µM), 0.5 µg/mL (≈ 0.895 µM) and 0.03 µg/mL (≈ 0.0537 µM), respectively. Also, the “Prot Bind %” value in data set [4] was 79.4%. For the same compound, the “Thigh Burden” value in the data set with S. aureus ATCC 13709 is 5.24 log10 decrease. Further, the ED50 (in general, the dose that gives a 50% effect, or the effect in half of the subjects) in data set [7] came to 0.3 mg/kg.

As for `CC(C)CNCC(=O)Nc1cc(F)c2c(c1O)C(=O)C1=C(O)[C@]3(O)C(=O)C(C(N)=O)=C(O)[C@@H](N(C)C)[C@@H]3C[C@@H]1C2` [drawing 215], the “Meta Stab %” value in data set [1] is listed as 72%. This compound also displayed a TetR sepsis in data set [2] of 3.5 mg/kg. This compound also returned a GN sepsis in the data set with E. coli ATCC 25922 of 14.3 mg/kg. The MIC90 in [3] came to 4 µg/mL (≈ 7.14 µM); in data set [5], 1 µg/mL (≈ 1.78 µM); in data set [6] it was 0.03 µg/mL (≈ 0.0535 µM). In addition, in [4], the “Prot Bind %” value was 95.6%. Also, in the data set with S. aureus ATCC 13709, the “Thigh Burden” value is on record as 5.01 log10 decrease. Also, it took a dose of 0.55 mg/kg to reach the 50% effect level in data set [7] (ED50).

Consider `CN(C)[C@@H]1C(O)=C(C(N)=O)C(=O)[C@@]2(O)C(O)=C3C(=O)c4c(O)c(NC(=O)CN5CCC5)cc(F)c4C[C@H]3C[C@@H]12` [drawing 216], for which, in data set [1], the “Meta Stab %” value turned out to be 85%. In addition, the MIC90 was 4 µg/mL (≈ 7.35 µM) in data set [3], 0.5 µg/mL (≈ 0.918 µM) in data set [5] and 0.03 µg/mL (≈ 0.0551 µM) in [6]. The “Prot Bind %” value in data set [4] is given as 87.1%. In data set [7], this compound yielded a 50% effective dose (ED50) of 0.07 mg/kg.

As to `CN(C)CC(=O)Nc1cc(F)c2c(c1O)C(=O)C1=C(O)[C@]3(O)C(=O)C(C(N)=O)=C(O)[C@@H](N(C)C)[C@@H]3C[C@@H]1C2` [drawing 220], the “Meta Stab %” value in data set [1] was 109%. In data set [2], this compound came in with a TetR sepsis of 0.62 mg/kg. This compound also returned a GN sepsis in the data set with E. coli ATCC 25922 of 4.3 mg/kg. Also, the MIC90 was 4 µg/mL (≈ 7.51 µM) in [3], 4 µg/mL (≈ 7.51 µM) in data set [5] and 0.06 µg/mL (≈ 0.113 µM) in [6]. Besides, the “Prot Bind %” value in data set [4] was 93.6%. In the data set on S. aureus ATCC 13709, the “Thigh Burden” value is reported as 4.12 log10 decrease. In data set [7], this compound gave an ED50 of 0.073 mg/kg.

Consider `CN(C)[C@@H]1C(O)=C(C(N)=O)C(=O)[C@@]2(O)C(O)=C3C(=O)c4c(O)c(NC(=O)CNCC5CC5)cc(F)c4C[C@H]3C[C@@H]12` [drawing 218], for which, in data set [1], the “Meta Stab %” value came to 65%. Also, the MIC90 in data set [3] is 8 µg/mL (≈ 14.3 µM); in [5], 2 µg/mL (≈ 3.58 µM); in [6] it was 0.03 µg/mL (≈ 0.0537 µM). The “Prot Bind %” value in data set [4] was determined as 87.9%. This compound gave an ED50 in [7] of 0.55 mg/kg.

As for `CN(C)[C@@H]1C(O)=C(C(N)=O)C(=O)[C@@]2(O)C(O)=C3C(=O)c4c(O)c(NC(=O)CNC(C)(C)C)cc(F)c4C[C@H]3C[C@@H]12` [drawing 214], the “Meta Stab %” value in data set [1] is on record as 104%. This compound registered a TetR sepsis in data set [2] of 0.4 mg/kg. The compound also returned a GN sepsis with E. coli ATCC 25922 of 6.2 mg/kg. Also, the MIC90 in data set [3] was determined as 2 µg/mL (≈ 3.57 µM); in data set [5] it was 0.5 µg/mL (≈ 0.892 µM); in [6] it was 0.03 µg/mL (≈ 0.0535 µM). The “Prot Bind %” value in [4] amounted to 90%. Moreover, in the data set with S. aureus ATCC 13709, the “Thigh Burden” value worked out at 4.41 log10 decrease. Further, in [7], the 50% effect level (ED50) was put at a dose of 0.3 mg/kg.

For the compound `CC(C)NCC(=O)Nc1cc(F)c2c(c1O)C(=O)C1=C(O)[C@]3(O)C(=O)C(C(N)=O)=C(O)[C@@H](N(C)C)[C@@H]3C[C@@H]1C2` [drawing 219], the “Meta Stab %” value in [1] was determined as 96%. Besides, the values for the MIC90 in [3], in data set [5] and in data set [6] were 2 µg/mL (≈ 3.66 µM), 1 µg/mL (≈ 1.83 µM) and 0.06 µg/mL (≈ 0.11 µM), respectively. Also, in data set [4], the “Prot Bind %” value was 96.9%. In data set [7], this compound registered an ED50 of 0.3 mg/kg.

Regarding `CN(C)c1cc(NC(=O)CNC(C)(C)C)c(O)c2c1C[C@H]1C[C@H]3[C@H](N(C)C)C(O)=C(C(N)=O)C(=O)[C@@]3(O)C(O)=C1C2=O`, in data set [1], the “Meta Stab %” value is listed as 55%. This compound also returned a TetR sepsis in data set [2] of 0.55 mg/kg. The GN sepsis in the data set with E. coli ATCC 25922 is reported as 2.1 mg/kg. Also, the figures for the MIC90 in [3], in data set [5] and in [6] were 1 µg/mL (≈ 1.71 µM), 0.5 µg/mL (≈ 0.854 µM) and 0.06 µg/mL (≈ 0.102 µM), respectively. For the same compound, the “Prot Bind %” value in data set [4] was found to be 69.1%. Moreover, the “Thigh Burden” value in the data set with S. aureus ATCC 13709 is on record as 4.89 log10 decrease. This compound also showed an ED50 in [7] of 0.97 mg/kg.
